According to US20230041563A1, “N-(1,3,4-OXADIAZOL-2-YL)ARYLCARBOXAMIDES OR SALTS THEREOF, PREPARATION METHODS, HERBICIDAL COMPOSITIONS AND USES THEREOF” (priority 2018, published 2023):
Read-outs that look alike come from different tables or passages of the source.

Test system: weeds
Test: Actual control effects and combined effects of mixtures of active ingredients (i) and (ii), stem-leaf treatment, Gowing method
Format: in vivo
Conditions: 20 days
Procedure: According to the actual control effect and the property of the herbicides, the balance of the formula and other factors, the optimal ratio was determined. In the calculation formula: X represents the fresh weight inhibition rate when the active ingredient (i) is used in an amount of P; and Y represents the fresh weight inhibition rate when the active ingredient (ii) is used in an amount of Q. The statistical results are shown in Tables 9-11 below.

[1] = 480 h, Echinochloa phyllopogon, (ii) 3 g a.i./mu, stem-leaf treatment, read-out: Control effect of (ii) alone at corresponding dose
[2] = 480 h, Echinochloa phyllopogon, (ii) 15 g a.i./mu, read-out: Control effect of (ii) alone at corresponding dose
[3] = Echinochloa phyllopogon, (ii) 3 g a.i./mu
[4] = Monochoria vaginalis, (ii) 3 g a.i./mu
[5] = Monochoria vaginalis, (ii) 3 g a.i./mu, stem-leaf treatment
[6] = Leptochloa chinensis, (ii) 3 g a.i./mu
[7] = 480 h, Echinochloa phyllopogon, (ii) 15 g a.i./mu, stem-leaf treatment, read-out: Control effect of (ii) alone at corresponding dose
[8] = Echinochloa phyllopogon, (ii) 15 g a.i./mu
[9] = Monochoria vaginalis, (ii) 5 g a.i./mu
[10] = Cyperus difformis, (ii) 3 g a.i./mu
[11] = Leptochloa chinensis, (ii) 15 g a.i./mu
[12] = 480 h, Echinochloa phyllopogon, (ii) 30 g a.i./mu, read-out: Control effect of (ii) alone at corresponding dose
[13] = Echinochloa phyllopogon, (ii) 0.6 g a.i./mu
[14] = Pontederia vaginalis, 480 h, Monochoria vaginalis, (ii) 3 g a.i./mu, stem-leaf treatment, read-out: Control effect of (ii) alone at corresponding dose
[15] = Pontederia vaginalis, 480 h, Monochoria vaginalis, (ii) 5 g a.i./mu, stem-leaf treatment, read-out: Control effect of (ii) alone at corresponding dose
[16] = Echinochloa phyllopogon, (ii) 3 g a.i./mu, stem-leaf treatment

Cc1ccccc1CO[C@@H]1C[C@@]2(C(C)C)CC[C@]1(C)O2 (racemic) [Cinmethylin]
pest or weed control at 45 g/ha [1]: 13.2%
pest or weed control at […] [2]: 54.5%
Control effect of (ii) alone at corresponding dose [3]: 13.2%

O=C(O)CCCOc1ccc(Cl)cc1Cl [2,4-D butyric acid]
Control effect of (ii) alone at corresponding dose [4]: 23.5%
Control effect of (ii) alone at corresponding dose [5]: 23.5%
Control effect of (ii) alone at corresponding dose (Monochoria vaginalis, (ii) 15 g a.i./mu): 65.3%
Control effect of (ii) alone at corresponding dose (Monochoria vaginalis, (ii) 15 g a.i./mu, stem-leaf treatment): 65.3%

CC(C)c1nn(C(=O)NC(C)(C)C)c(=O)n1N [Amicarbazone]
Control effect of (ii) alone at corresponding dose [4]: 23.3%
Control effect of (ii) alone at corresponding dose [5]: 23.3%
Control effect of (ii) alone at corresponding dose (Monochoria vaginalis, (ii) 10 g a.i./mu): 51.6%
Control effect of (ii) alone at corresponding dose (Monochoria vaginalis, (ii) 10 g a.i./mu, stem-leaf treatment): 51.6%

COP(=S)(OC)SCC(=O)N(c1ccc(Cl)cc1)C(C)(C)C [Anilofos]
pest or weed control at 45 g/ha (Dinebra chinensis, 480 h, Leptochloa chinensis, (ii) 3 g a.i./mu, stem-leaf treatment, read-out: Control effect of (ii) alone at corresponding dose): 30.8%
pest or weed control at 450 g/ha (Dinebra chinensis, 480 h, Leptochloa chinensis, (ii) 30 g a.i./mu, read-out: Control effect of (ii) alone at corresponding dose): 62.6%
Control effect of (ii) alone at corresponding dose [6]: 30.8%

CCNc1nc(Cl)nc(NC(C)C)n1 [Atrazine]
pest or weed control at 9 g/ha (480 h, Echinochloa phyllopogon, (ii) 0.6 g a.i./mu, read-out: Control effect of (ii) alone at corresponding dose): 2.3%
pest or weed control at […] [7]: 30.6%
Control effect of (ii) alone at corresponding dose [8]: 30.6%

CCC(Oc1ccc(F)c(C(F)(F)F)c1)C(=O)NCc1ccccc1 (stereo not drawn) [Beflubutamid]
Control effect of (ii) alone at corresponding dose (Monochoria vaginalis, (ii) 1.5 g a.i./mu): 15.3%
Control effect of (ii) alone at corresponding dose [9]: 40.3%
Control effect of (ii) alone at corresponding dose (Monochoria vaginalis, (ii) 5 g a.i./mu, stem-leaf treatment): 40.3%

CC(C)N1C(=O)c2ccccc2NS1(=O)=O [Bentazone]
pest or weed control at 27 g/ha (480 h, Cyperus difformis, (ii) 1.8 g a.i./mu, read-out: Control effect of (ii) alone at corresponding dose): 18.2%
pest or weed control at 135 g/ha (480 h, Cyperus difformis, (ii) 9 g a.i./mu, stem-leaf treatment, read-out: Control effect of (ii) alone at corresponding dose): 40.4%
Control effect of (ii) alone at corresponding dose (Cyperus difformis, (ii) 9 g a.i./mu): 40.4%

CCN(CC)C(=O)SCc1ccc(Cl)cc1 [Benthiocarb]
Control effect of (ii) alone at corresponding dose [10]: 15.2%
Control effect of (ii) alone at corresponding dose (Cyperus difformis, (ii) 3 g a.i./mu, stem-leaf treatment): 15.2%
Control effect of (ii) alone at corresponding dose (Cyperus difformis, (ii) 30 g a.i./mu): 50.3%

CS(=O)(=O)c1ccc(C(=O)C2=C(Sc3ccccc3)C3CCC(C3)C2=O)c(Cl)c1 (stereo not drawn) [Benzobicylon]
Control effect of (ii) alone at corresponding dose [6]: 26.8%
Control effect of (ii) alone at corresponding dose (Leptochloa chinensis, (ii) 3 g a.i./mu, stem-leaf treatment): 26.8%
Control effect of (ii) alone at corresponding dose [11]: 68.2%
Control effect of (ii) alone at corresponding dose (Leptochloa chinensis, (ii) 15 g a.i./mu, stem-leaf treatment): 68.2%

COc1cc(OC)nc(Oc2cccc(Oc3nc(OC)cc(OC)n3)c2C(=O)O)n1 [Bispyribac-sodium]
pest or weed control at 9 g/ha (480 h, Cyperus difformis, (ii) 0.6 g a.i./mu, read-out: Control effect of (ii) alone at corresponding dose): 39.5%
pest or weed control at 15 g/ha (480 h, Cyperus difformis, (ii) 1 g a.i./mu, stem-leaf treatment, read-out: Control effect of (ii) alone at corresponding dose): 70.4%
Control effect of (ii) alone at corresponding dose (Cyperus difformis, (ii) 1 g a.i./mu): 70.4%

CCC(C)n1c(=O)[nH]c(C)c(Br)c1=O (stereo not drawn) [Bromacil]
pest or weed control at 45 g/ha [1]: 12.8%
pest or weed control at 450 g/ha [12]: 59.7%
Control effect of (ii) alone at corresponding dose [3]: 12.8%

CCCCCCCC(=O)Oc1c(Br)cc(C#N)cc1Br [Bromoxynil octanoate]
pest or weed control at 9 g/ha (480 h, Sagittaria trifolia L., (ii) 0.6 g a.i./mu, read-out: Control effect of (ii) alone at corresponding dose): 6.4%
pest or weed control at 45 g/ha (480 h, Sagittaria trifolia, (ii) 3 g a.i./mu, stem-leaf treatment, read-out: Control effect of (ii) alone at corresponding dose): 12.5%
Control effect of (ii) alone at corresponding dose (Sagittaria trifolia L., (ii) 3 g a.i./mu): 12.5%

CCCCOCN(C(=O)CCl)c1c(CC)cccc1CC [Butachlor]
pest or weed control at […] [7]: 19.3%
pest or weed control at 450 g/ha [12]: 39.7%
Control effect of (ii) alone at corresponding dose [8]: 19.3%

CCC(C)Nc1c([N+](=O)[O-])cc(C(C)(C)C)cc1[N+](=O)[O-] (stereo not drawn) [Butralin]
pest or weed control at 45 g/ha (480 h, Cyperus difformis, (ii) 3 g a.i./mu, stem-leaf treatment, read-out: Control effect of (ii) alone at corresponding dose): 16.4%
pest or weed control at 450 g/ha (480 h, Cyperus difformis, (ii) 30 g a.i./mu, read-out: Control effect of (ii) alone at corresponding dose): 46.8%
Control effect of (ii) alone at corresponding dose [10]: 16.4%

CCOC(=O)C(Cl)Cc1cc(-n2nc(C)n(C(F)F)c2=O)c(F)cc1Cl (stereo not drawn) [Carfentrazone-ethyl]
pest or weed control at 3 g/ha (480 h, Echinochloa phyllopogon, (ii) 0.2 g a.i./mu, stem-leaf treatment, read-out: Control effect of (ii) alone at corresponding dose): 5.3%
pest or weed control at 120 g/ha (480 h, Echinochloa phyllopogon, (ii) 8 g a.i./mu, stem-leaf treatment, read-out: Control effect of (ii) alone at corresponding dose): 73.6%
Control effect of (ii) alone at corresponding dose (Echinochloa phyllopogon, (ii) 0.2 g a.i./mu): 5.3%
Control effect of (ii) alone at corresponding dose (Echinochloa phyllopogon, (ii) 8 g a.i./mu): 73.6%

Cc1ccc(NC(=O)N(C)C)cc1Cl [Chlortoluron]
pest or weed control at 9 g/ha (480 h, Echinochloa phyllopogon, (ii) 0.6 g a.i./mu, stem-leaf treatment, read-out: Control effect of (ii) alone at corresponding dose): 18.3%
pest or weed control at […] [7]: 57.6%
Control effect of (ii) alone at corresponding dose [13]: 18.3%
Control effect of (ii) alone at corresponding dose [8]: 57.6%

CC1(C)CON(Cc2ccccc2Cl)C1=O [Clomazone]
pest or weed control at 45 g/ha (Dinebra chinensis, 480 h, Leptochloa chinensis, (ii) 3 g a.i./mu, read-out: Control effect of (ii) alone at corresponding dose): 16.8%
pest or weed control at […] (Dinebra chinensis, 480 h, Leptochloa chinensis, (ii) 15 g a.i./mu, stem-leaf treatment, read-out: Control effect of (ii) alone at corresponding dose): 53.6%
Control effect of (ii) alone at corresponding dose [11]: 53.6%

O=C(O)c1nc(Cl)ccc1Cl [Clopyralid]
Control effect of (ii) alone at corresponding dose (Monochoria vaginalis, (ii) 1 g a.i./mu): 49.6%
pest or weed control at 15 g/ha (Pontederia vaginalis, 480 h, Monochoria vaginalis, (ii) 1 g a.i./mu, stem-leaf treatment, read-out: Control effect of (ii) alone at corresponding dose): 49.6%
pest or weed control at 18 g/ha (Pontederia vaginalis, 480 h, Monochoria vaginalis, (ii) 1.2 g a.i./mu, read-out: Control effect of (ii) alone at corresponding dose): 56.3%

CCCCOC(=O)[C@@H](C)Oc1ccc(Oc2ccc(C#N)cc2F)cc1 [Cyhalofop-butyl]
pest or weed control at 45 g/ha [1]: 12.2%
pest or weed control at […] [2]: 45.1%
Control effect of (ii) alone at corresponding dose [3]: 12.2%

COc1c(Cl)ccc(Cl)c1C(=O)O [Dicamba]
Control effect of (ii) alone at corresponding dose [4]: 50.9%
Control effect of (ii) alone at corresponding dose [9]: 70.2%
pest or weed control at 45 g/ha [14]: 50.9%
pest or weed control at 75 g/ha [15]: 70.2%

CCN(C(=O)n1nnn(-c2ccccc2Cl)c1=O)C1CCCCC1 [Fentrazamide]
Control effect of (ii) alone at corresponding dose [4]: 30.2%
pest or weed control at […] (Pontederia vaginalis, 480 h, Monochoria vaginalis, (ii) 1.5 g a.i./mu, read-out: Control effect of (ii) alone at corresponding dose): 18.3%
pest or weed control at 45 g/ha [14]: 30.2%

COc1c(Cl)ccc(-c2nc(C(=O)OCc3ccccc3)c(Cl)c(N)c2F)c1F [Florpyrauxifen-benzyl]
Control effect of (ii) alone at corresponding dose [13]: 21.5%
Control effect of (ii) alone at corresponding dose (Echinochloa phyllopogon, (ii) 0.6 g a.i./mu, stem-leaf treatment): 21.5%
Control effect of (ii) alone at corresponding dose [3]: 70.5%
Control effect of (ii) alone at corresponding dose [16]: 70.5%

O=C1C(Cl)C(CCl)CN1c1cccc(C(F)(F)F)c1 (stereo not drawn) [Fluorochloridone]
Control effect of (ii) alone at corresponding dose [3]: 9.1%
Control effect of (ii) alone at corresponding dose [16]: 9.1%
Control effect of (ii) alone at corresponding dose (Echinochloa phyllopogon, (ii) 30 g a.i./mu): 52.3%

Nc1c(Cl)c(F)nc(OCC(=O)O)c1Cl [Fluroxypyr]
Control effect of (ii) alone at corresponding dose [4]: 60.3%
pest or weed control at 45 g/ha [14]: 60.3%
pest or weed control at 60 g/ha (Pontederia vaginalis, 480 h, Monochoria vaginalis, (ii) 4 g a.i./mu, read-out: Control effect of (ii) alone at corresponding dose): 70.4%
pest or weed control at 75 g/ha [15]: 73.4%

Cn1[nH]c(C2CC2)c(C(=O)c2ccc(C(F)(F)F)c(N3CCCCC3=O)c2Cl)c1=O [Huanbifucaotong]
Control effect of (ii) alone at corresponding dose (Digitaria sanguinalis, (ii) 3 g a.i./mu, stem-leaf treatment): 6.2%
Control effect of (ii) alone at corresponding dose (Leptochloa chinensis, (ii) 0.5 g a.i./mu): 9.2%
Control effect of (ii) alone at corresponding dose (Leptochloa chinensis, (ii) 0.5 g a.i./mu, stem-leaf treatment): 9.2%
Control effect of (ii) alone at corresponding dose [11]: 76.2%
